Source: ChEMBL document CHEMBL1154202, “Arylcarboxyamino-substituted diaryl ureas as potent and selective FLT3 inhibitors” (Bioorg Med Chem Lett, 2009)
Active and inactive are the calls of the source. The rule behind the calls is not given here.

How the values were obtained:
[1] = tested on: MV4-11; assay: Antitumor activity against human MV411 cells assessed as inhibition of cell proliferation; type: functional, cell-based
[2] = target: T1, Receptor-type tyrosine-protein kinase FLT3 (Homo sapiens, UniProt P36888)
T1 sequence (P36888 whole entry): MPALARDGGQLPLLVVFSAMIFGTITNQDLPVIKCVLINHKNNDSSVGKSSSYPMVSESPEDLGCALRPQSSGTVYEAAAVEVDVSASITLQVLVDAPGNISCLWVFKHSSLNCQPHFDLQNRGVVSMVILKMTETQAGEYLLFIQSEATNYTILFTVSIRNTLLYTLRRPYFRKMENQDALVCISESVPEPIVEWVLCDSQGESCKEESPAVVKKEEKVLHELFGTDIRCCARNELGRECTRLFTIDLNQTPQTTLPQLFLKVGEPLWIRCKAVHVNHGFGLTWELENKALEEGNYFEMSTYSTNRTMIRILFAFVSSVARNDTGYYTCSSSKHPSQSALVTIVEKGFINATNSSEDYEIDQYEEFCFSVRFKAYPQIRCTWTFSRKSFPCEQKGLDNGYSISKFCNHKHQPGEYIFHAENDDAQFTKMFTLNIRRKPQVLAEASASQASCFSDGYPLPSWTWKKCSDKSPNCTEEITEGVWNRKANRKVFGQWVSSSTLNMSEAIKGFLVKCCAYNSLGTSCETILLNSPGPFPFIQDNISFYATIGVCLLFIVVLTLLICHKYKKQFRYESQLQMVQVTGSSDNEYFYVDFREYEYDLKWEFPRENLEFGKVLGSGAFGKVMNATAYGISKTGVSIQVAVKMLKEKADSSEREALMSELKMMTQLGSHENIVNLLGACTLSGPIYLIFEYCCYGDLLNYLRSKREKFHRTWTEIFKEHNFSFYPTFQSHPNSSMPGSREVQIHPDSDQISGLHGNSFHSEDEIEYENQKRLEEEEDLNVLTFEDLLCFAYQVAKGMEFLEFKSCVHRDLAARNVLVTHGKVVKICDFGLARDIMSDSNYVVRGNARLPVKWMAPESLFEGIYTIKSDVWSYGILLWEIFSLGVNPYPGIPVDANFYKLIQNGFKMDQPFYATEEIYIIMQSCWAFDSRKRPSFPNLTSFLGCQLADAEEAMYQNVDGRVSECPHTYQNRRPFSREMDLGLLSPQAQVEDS

[3] = target: Vascular endothelial growth factor receptor 2 (Homo sapiens, UniProt P35968); assay: Binding affinity to VEGFR2
Chain of Vascular endothelial growth factor receptor 2 (P35968 whole entry): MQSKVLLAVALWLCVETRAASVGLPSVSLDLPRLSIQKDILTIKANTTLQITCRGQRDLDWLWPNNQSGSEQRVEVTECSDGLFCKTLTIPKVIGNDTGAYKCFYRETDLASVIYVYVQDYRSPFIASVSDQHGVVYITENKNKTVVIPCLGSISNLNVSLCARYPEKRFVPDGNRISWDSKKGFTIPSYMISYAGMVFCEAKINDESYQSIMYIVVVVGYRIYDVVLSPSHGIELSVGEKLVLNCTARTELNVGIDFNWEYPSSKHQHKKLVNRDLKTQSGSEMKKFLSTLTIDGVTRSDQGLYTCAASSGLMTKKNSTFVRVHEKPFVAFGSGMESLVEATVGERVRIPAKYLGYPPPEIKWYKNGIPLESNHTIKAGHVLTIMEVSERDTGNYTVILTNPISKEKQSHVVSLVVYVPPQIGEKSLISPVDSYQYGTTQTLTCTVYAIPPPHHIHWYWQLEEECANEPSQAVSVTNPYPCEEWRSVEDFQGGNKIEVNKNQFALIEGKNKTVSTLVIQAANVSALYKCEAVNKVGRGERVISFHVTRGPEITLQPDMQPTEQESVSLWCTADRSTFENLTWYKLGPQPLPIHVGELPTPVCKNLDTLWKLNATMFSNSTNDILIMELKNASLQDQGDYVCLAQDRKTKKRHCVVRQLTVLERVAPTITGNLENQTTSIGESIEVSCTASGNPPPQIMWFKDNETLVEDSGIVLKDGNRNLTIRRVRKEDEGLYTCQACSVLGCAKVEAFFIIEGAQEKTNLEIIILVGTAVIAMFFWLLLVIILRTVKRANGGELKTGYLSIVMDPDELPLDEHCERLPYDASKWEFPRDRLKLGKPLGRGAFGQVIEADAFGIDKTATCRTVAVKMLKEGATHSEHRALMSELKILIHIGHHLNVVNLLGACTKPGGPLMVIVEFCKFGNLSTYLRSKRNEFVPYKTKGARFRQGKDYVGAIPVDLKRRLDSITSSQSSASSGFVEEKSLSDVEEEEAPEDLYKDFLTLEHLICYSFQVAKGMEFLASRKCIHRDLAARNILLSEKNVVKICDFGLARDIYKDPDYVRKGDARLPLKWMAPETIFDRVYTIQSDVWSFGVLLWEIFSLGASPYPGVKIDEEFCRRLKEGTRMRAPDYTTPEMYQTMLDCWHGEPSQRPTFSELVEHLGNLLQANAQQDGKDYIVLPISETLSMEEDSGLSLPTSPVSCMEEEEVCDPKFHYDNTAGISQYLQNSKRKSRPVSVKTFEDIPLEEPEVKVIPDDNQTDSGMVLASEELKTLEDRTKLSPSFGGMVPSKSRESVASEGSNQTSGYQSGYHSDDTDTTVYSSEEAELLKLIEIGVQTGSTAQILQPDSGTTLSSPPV

[4] = target: Mast/stem cell growth factor receptor Kit (Homo sapiens, UniProt P10721); assay: Binding affinity to KIT
Chain of Mast/stem cell growth factor receptor Kit (P10721 whole entry): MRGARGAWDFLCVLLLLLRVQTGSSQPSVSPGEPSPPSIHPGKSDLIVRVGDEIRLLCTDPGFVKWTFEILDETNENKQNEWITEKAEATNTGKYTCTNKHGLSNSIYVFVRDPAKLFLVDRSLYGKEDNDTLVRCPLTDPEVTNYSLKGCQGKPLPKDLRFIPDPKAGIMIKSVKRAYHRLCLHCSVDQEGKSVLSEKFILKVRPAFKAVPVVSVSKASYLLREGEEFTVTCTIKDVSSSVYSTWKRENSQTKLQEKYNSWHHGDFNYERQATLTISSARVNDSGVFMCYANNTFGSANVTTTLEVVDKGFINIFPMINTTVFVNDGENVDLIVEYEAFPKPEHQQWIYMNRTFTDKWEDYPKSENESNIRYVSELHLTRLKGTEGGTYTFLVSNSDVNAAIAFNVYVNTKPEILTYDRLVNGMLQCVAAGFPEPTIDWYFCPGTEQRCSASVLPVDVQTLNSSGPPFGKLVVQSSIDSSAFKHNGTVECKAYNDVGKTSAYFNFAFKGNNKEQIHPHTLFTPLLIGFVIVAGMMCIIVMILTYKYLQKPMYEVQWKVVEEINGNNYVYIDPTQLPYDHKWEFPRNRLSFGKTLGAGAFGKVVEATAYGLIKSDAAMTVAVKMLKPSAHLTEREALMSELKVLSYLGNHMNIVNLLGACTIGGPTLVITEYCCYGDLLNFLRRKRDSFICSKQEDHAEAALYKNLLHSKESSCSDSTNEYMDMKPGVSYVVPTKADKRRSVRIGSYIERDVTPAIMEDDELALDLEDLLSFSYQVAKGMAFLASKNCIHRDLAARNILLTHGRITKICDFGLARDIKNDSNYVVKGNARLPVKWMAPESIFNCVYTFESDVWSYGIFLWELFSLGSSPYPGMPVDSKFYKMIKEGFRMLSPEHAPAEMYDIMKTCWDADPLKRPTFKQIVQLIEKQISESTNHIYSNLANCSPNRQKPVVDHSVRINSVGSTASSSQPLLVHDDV

[5] = target: Macrophage colony-stimulating factor 1 receptor (Homo sapiens, UniProt P07333); assay: Binding affinity to CSF1R
[6] = target: Proto-oncogene tyrosine-protein kinase receptor Ret (Homo sapiens, UniProt P07949); assay: Binding affinity to RET
Chain of Proto-oncogene tyrosine-protein kinase receptor Ret (P07949 whole entry): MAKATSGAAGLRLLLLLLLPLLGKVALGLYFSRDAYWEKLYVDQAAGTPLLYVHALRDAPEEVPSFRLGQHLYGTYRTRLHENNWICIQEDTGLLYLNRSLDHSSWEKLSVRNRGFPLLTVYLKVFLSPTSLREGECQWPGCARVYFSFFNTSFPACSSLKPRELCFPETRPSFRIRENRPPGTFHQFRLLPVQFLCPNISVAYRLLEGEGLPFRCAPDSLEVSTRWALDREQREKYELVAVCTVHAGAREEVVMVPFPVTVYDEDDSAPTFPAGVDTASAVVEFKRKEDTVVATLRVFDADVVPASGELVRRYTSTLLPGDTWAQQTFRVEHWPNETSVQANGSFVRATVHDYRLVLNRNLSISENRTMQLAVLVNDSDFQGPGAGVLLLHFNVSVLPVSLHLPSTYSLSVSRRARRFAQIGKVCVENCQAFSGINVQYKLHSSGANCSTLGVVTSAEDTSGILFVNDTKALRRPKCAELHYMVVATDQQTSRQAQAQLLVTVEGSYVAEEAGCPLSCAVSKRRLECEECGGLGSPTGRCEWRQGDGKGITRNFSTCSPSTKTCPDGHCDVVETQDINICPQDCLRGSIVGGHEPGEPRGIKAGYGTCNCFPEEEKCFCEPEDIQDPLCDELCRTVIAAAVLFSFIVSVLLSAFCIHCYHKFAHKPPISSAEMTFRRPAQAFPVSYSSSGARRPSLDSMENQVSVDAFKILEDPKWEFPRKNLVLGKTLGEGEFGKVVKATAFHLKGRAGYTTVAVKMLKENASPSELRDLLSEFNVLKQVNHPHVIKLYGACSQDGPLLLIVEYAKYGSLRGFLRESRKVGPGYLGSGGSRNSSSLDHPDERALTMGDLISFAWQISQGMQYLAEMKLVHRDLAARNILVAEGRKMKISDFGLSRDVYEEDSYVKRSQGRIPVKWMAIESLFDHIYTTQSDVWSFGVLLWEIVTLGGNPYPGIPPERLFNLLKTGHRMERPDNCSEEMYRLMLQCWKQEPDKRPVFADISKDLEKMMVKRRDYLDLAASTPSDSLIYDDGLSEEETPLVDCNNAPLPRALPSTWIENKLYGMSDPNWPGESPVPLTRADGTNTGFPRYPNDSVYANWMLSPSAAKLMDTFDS

[7] = target: Platelet-derived growth factor receptor beta (Homo sapiens, UniProt P09619); assay: Binding affinity to PDGFRbeta
Chain of Platelet-derived growth factor receptor beta (P09619 whole entry): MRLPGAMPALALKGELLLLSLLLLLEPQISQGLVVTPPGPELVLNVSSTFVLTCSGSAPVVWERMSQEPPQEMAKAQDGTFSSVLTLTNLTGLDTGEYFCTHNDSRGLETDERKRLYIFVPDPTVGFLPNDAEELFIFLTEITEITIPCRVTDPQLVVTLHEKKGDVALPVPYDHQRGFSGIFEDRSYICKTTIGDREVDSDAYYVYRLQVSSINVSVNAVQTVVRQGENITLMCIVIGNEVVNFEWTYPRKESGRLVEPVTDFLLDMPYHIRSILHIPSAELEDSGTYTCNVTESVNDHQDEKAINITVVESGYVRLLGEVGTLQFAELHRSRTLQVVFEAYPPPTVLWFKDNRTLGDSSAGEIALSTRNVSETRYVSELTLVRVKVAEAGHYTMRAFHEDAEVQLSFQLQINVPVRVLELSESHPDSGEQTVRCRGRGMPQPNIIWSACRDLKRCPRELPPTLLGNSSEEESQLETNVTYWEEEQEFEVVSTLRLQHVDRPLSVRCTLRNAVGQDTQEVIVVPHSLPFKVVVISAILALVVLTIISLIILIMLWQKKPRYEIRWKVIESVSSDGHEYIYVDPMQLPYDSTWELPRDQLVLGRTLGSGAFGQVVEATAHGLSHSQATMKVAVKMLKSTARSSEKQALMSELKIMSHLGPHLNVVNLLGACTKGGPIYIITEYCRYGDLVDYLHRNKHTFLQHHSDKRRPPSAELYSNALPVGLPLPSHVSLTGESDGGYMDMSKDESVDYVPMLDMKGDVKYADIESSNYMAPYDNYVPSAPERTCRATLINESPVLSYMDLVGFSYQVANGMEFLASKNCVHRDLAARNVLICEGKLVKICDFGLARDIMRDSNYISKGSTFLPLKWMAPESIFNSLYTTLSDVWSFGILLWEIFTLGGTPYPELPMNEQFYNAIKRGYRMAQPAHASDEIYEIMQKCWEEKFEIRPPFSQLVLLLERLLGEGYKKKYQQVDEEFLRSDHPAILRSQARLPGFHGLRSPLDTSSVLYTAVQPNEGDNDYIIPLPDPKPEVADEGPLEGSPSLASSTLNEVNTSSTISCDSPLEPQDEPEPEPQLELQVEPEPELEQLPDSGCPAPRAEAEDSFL

[8] = Cmax in nude mouse at 10 mg/kg, po; type: ADME, organism-based; set-up: dose 10 mg/kg, route oral; conditions: in vivo
[9] = tested on: Mus musculus; assay: AUC in nude mouse at 10 mg/kg, po; type: ADME, organism-based, Plasma; set-up: dose 10 mg/kg, route oral; conditions: in vivo
[10] = Half life in nude mouse at 10 mg/kg, po; type: ADME, organism-based; set-up: dose 10 mg/kg, route oral; conditions: in vivo
[11] = tested on: MV4-11; assay: Antitumor activity against human MV411 cells in xenografted athymic nude mouse model assessed as decrease in tumor size at 10 mg/kg, po qd for 28 days measured after 29 to 36 days; type: functional
[12] = tested on: MV4-11; assay: Antitumor activity against human MV411 cells in xenografted athymic nude mouse model assessed as decrease in tumor size at 10 mg/kg, po qd for 28 days measured after 36 to 56 days; type: functional, organism-based; set-up: dose 10 mg/kg
[13] = tested on: MV4-11; assay: Antitumor activity against human MV411 cells in xenografted athymic nude mouse model assessed as decrease in tumor size at 10 mg/kg, po qd for 28 days; type: functional, organism-based; set-up: dose 10 mg/kg
[14] = tested on: Mus musculus; assay: Toxicity in human MV411 cells in xenografted athymic nude mouse model assessed as change in body weight at 10 mg/kg, po qd for 28 days; type: organism-based, MV4-11; set-up: dose 10 mg/kg, route oral; conditions: in vivo, 672 h
[15] = tested on: MV4-11; assay: Antitumor activity against human MV411 cells in xenografted athymic nude mouse model assessed as decrease in tumor size at 30 mg/kg, po qd for 28 days; type: functional, organism-based; set-up: dose 30 mg/kg

IC50 [1]	Kd [2]	Compound	other results
414 nM	38.4 nM	CC(C)(C)c1cc(NC(=O)Nc2ccc(C(=O)Nc3ccncc3)cc2)no1	–
3.1 nM	0.75 nM	CC(C)(C)c1cc(NC(=O)Nc2ccc(NC(=O)c3ccc4ccccc4c3)cc2)no1	–
0.85 nM	0.77 nM	Cc1ccc2sc(C(=O)Nc3ccc(NC(=O)Nc4cc(C(C)(C)C)on4)cc3)cc2c1	–
10500 nM	240 nM	CC(C)(C)c1cc(NC(=O)Nc2ccc(NC(=O)C3CCNCC3)cc2)no1	–
1.6 nM	0.76 nM	CC(C)(C)c1cc(NC(=O)Nc2ccc(NC(=O)c3ccccn3)cc2)no1	–
1090 nM	510 nM	CC(C)(C)c1cc(NC(=O)Nc2ccc(NC(=O)Cc3ccccc3)cc2)no1	–
199 nM	25 nM	CC(C)(C)c1cc(NC(=O)Nc2ccc(C(=O)Nc3cccnc3)cc2)no1	–
159 nM	15 nM	CC(C)(C)c1cc(NC(=O)Nc2ccc(NC(=O)c3cccnc3)cc2)no1	–

The remaining lines, values behind:

Compound	IC50 [1]	Kd [2]	other results
CC(C)(C)c1cc(NC(=O)Nc2ccc(NC(=O)c3ccccc3)cc2)no1	30 nM	0.98 nM	–
CC(C)(C)c1cc(NC(=O)Nc2ccc(NC(=O)c3cn4c(n3)sc3ccccc34)cc2)no1	0.44 nM	1.6 nM	Kd [3]: > 200 nM; Kd [4]: 7.5 nM; Kd [5]: 10 nM; Kd [6]: 3 nM; Kd [7]: 2.2 nM; Cmax [8]: 2360 nM; AUC [9]: 13.2 µM·h; half-life [10]: 138 min; Activity [11]: 90 mm3; Activity [12]: inactive; Activity [13]: Active; Activity [14]: < 5%
CC(C)(C)c1cc(NC(=O)Nc2ccc(NC(=O)c3ccncc3)cc2)no1	132 nM	10.1 nM	–
CC(C)(C)c1cc(NC(=O)Nc2ccc(NC(=O)c3ncccc3O)cc2)no1	0.71 nM	0.74 nM	Kd [4]: 0.96 nM; Kd [5]: 4.4 nM; Kd [6]: 4.7 nM; Kd [7]: 2.6 nM
CC(C)(C)c1cc(NC(=O)Nc2ccc(C(=O)Nc3ccccc3)cc2)no1	101 nM	7.4 nM	–
CC(C)(C)c1cc(NC(=O)Nc2ccc(NC(=O)c3nccc4ccccc34)cc2)no1	2.8 nM	0.74 nM	–
CCN(CC)CCNC(=O)c1c(C)[nH]c(/C=C2\C(=O)Nc3ccc(F)cc32)c1C	–	–	Activity [11]: Active; Activity [15]: Active
CC(C)(C)c1cc(NC(=O)Nc2ccc(NC(=O)c3cc4ccccc4cn3)cc2)no1	0.29 nM	–	Kd [3]: > 200 nM; Kd [4]: 1.8 nM; Kd [6]: 7.3 nM; Kd [7]: 7 nM; Cmax [8]: 1310 nM; AUC [9]: 4.25 µM·h; half-life [10]: 132 min; Activity [11]: 90 mm3; Activity [12]: inactive; Activity [14]: < 5%
CC(C)(C)c1cc(NC(=O)Nc2ccc(C(=O)Nc3ccccn3)cc2)no1	104 nM	8.15 nM	–
CC(C)(C)c1cc(NC(=O)Nc2ccc(NC(=O)c3cccc(O)n3)cc2)no1	46.7 nM	2.5 nM	–
